The results in this text go back to patent publication US20140256666A1, “ANTIBIOTIC CONJUGATES WITH NONSTEROIDAL ANTI-INFLAMMATORY DRUGS” (Allergan, Inc., priority 2013, published 2014).

The test system of the data set is Human Corneal Epithelial Cells. As to the kind of experiment: In vitro corneal permeability, cellular uptake and metabolic stability in human corneal epithelial cells. Conditions: two hour incubation with Human Corneal Epithelial Cells, 50 μM final concentration. In kind it is in vitro ADME. As to the method: Clonetics® human corneal epithelial cells (HCEC) were purchased from Lonza Walkersville, Inc. (Walkersville, Md.) pre-seeded on Costar Transwell™ filters in a 24-well plate. Upon receipt HCEC cells were cultured overnight in a 37° C. incubator ([…], 5% CO2) in media provided by the vendor. Permeability studies were performed within 24 hours of receipt. Dosing solutions 100 μM test article (i.e. ester linked hybrids) were prepared in Lonza's proprietary media by diluting a 50 mM stock solution of the test article in dimethyl sulfoxide. The final percentage of solvent in the incubation was less than 1.0% to prevent inhibition of enzymatic activity or effects on the cell membrane. Transepithelial electrical resistance (TEER) was measured for all wells using a voltohmmeter with STX-2 electrodes (World Precision Instruments Inc., Sarasota, Fla.) after adding 100 μL pre-warmed (37° C.) media to the apical compartment. […] A final TEER value was measured and recorded for all wells.
To evaluate human corneal epithelial cell integrity incubations were conducted using 2 μCi/mL ^3H-mannitol for the same 2 hour incubation period with aliquots taken from the basolateral compartment. ^3H-Mannitol samples were analyzed using liquid scintillation counting. […]

Each structure is given as a SMILES string.

As for `COc1c(N2CCN(C(=O)OCOC(=O)C(C)c3ccc(-c4ccccc4)c(F)c3)C(C)C2)c(F)cc2c(=O)c(C(=O)O)cn(C3CC3)c12` (stereo not shown) [Compound 16, 1-cyclopropyl-6-fluoro-7-{4-[({[2-(2-fluorobiphenyl-4-yl)propanoyl]oxy}methoxy)carbonyl]-3-methylpiperazin-1-yl}-8-methoxy-4-oxo-1,4-dihydroquinoline-3-carboxylic acid], the “cellular uptake of hybrid (parent) and hydrolyzed metabolites (FIG. 1)” value is “penetrates into human corneal epithelial cells and is enzymatically hydrolyzed to the individual antibiotic and NSAID”.
